Experimental data taken from patent publication US20180305345A1 (priority 2015, published 2018).

Experiments:
VSVΔ51 in 786-0 cells = assay type: cell-based, human
[1] = test system: VSVΔ51-resistant HT29 cells (human colon carcinoma); set-up: species or system Balb/c mice; settings: in vivo

With `O=C1OC(c2ccccc2)C(Cl)=C1Cl` (stereo not shown) [Compound 1, 3,4-dichloro-5-phenyl-2,5-dihydrofuran-2-one, reference compound] the “effect on viral growth after removal of compound at various times” value (VSVΔ51 in 786-0 cells) was “rapid and sustained”.
For `O=C1C(Cl)=C(Cl)C(O)N1Cc1ccccc1` (stereo not drawn) [Compound 10, α,β-dichloro-γ-hydroxy-N-benzyl-crotonic lactam], the “effect on viral growth after removal of compound at various times” value (VSVΔ51 in 786-0 cells) was “rapid and sustained”.
`O=C1C(Cl)=C(Cl)C(O)N1CCN1CCOCC1` (stereo not shown) [Compound 28, 3,4-dichloro-5-hydroxy-1-(2-morpholinoethyl)-1H-pyrrol-2(5H)-one] was tested, and the mouse survival [1] was “increased mouse survival rates” and the tumor growth ([1]; mouse) was “reduced tumor growth”.
